Measured values as given in article PMC8372822, “A Concise Synthetic Strategy Towards the Novel Calcium-dependent Lipopeptide Antibiotic, Malacidin A and Analogues” (Frontiers in Chemistry, 2021).
Read-outs that look alike come from different tables or passages of the source. Positions of bridges follow the written chain, without caps; N, C: chain ends. Non-standard residues stand in square brackets, D forms with d. Residues, ends and D or L forms follow the SMILES beside them. *: point of attachment. Benzoyl(4-Ph) = O=C(c1ccc(-c2ccccc2)cc1)*; Decanoyl = CCCCCCCCCC(=O)*; Dap = NC[C@H](N)C(=O)O

Assays:
[1] = tested on: Staphylococcus aureus ATCC 6538; test: microbe, parasite or virus in culture; type: cell-based; settings: for MIC: S. aureus ATCC 6538, CAMHB, in presence of 50 mg L^-1 of CaCl2, 37 °C, 18 to 24 h, biological triplicate, maximum concentration 128 µg mL^-1
Description: Antimicrobial susceptibility testing was performed in biological triplicate by determining the minimum inhibitory concentrations (MIC) of the six malacidin analogues and the control antibiotics, penicillin G and daptomycin. Malacidin analogues 31, 36, 39, and 40 were prepared as 10 mg mL^-1 stock solutions in filter sterilised MilliQ water. Compounds 37, and 38 were prepared as 5 mg mL^-1 stock solutions in filter sterilised MilliQ water. Malacidin analogues were tested at a maximum concentration of 128 µg mL^-1. Bacterial inoculums of Staphylococcus aureus ATCC 6538 were prepared by diluting an overnight culture to a final optical density 600 nm (OD600) of 0.003 in cation adjusted Mueller Hinton broth (CAMH) to yield 5 × 10^5 CFU mL^-1 (final) in all assays. MIC assays were performed in 96-well microtiter plates in a total volume of 100 µL, and compounds were serially diluted across the plate in 2-fold dilutions. The MIC was reported as the lowest concentration of the test compound for which no growth occurred after incubation at 37 °C for 18 to 24 h. For all MIC testing CAMHB was supplemented with calcium (50 mg L^-1 final) as per the CLSI guidelines for daptomycin^17
Table S3. MIC values of simplified analogues 31, 36-40 in presence of 50 mg L^-1 of CaCl2.^aTesting was additionally performed in the absence of CaCl2 and no activity for any of the malacidin analogues was observed against S. aureus.

[2] = ref Hover et al., 2018; cited from earlier work
Text: Evaluation of the antibacterial activity of the synthesized analogues 1a, 31 and 36–40 was then undertaken.

[3] = tested on: vancomycin-resistant Enterococcus faecium (VRE); settings: ref Hover et al., 2018; cited from earlier work
Text: (§1) In 2018, Brady et al. reported the isolation of malacidin A (1) as part of an extensive metagenomic mining study of bacterial DNA obtained from soil samples in search of novel bioactive natural products ([Owen et al., 2013]; [Hover et al., 2018]). […] Malacidin ...

[4] = cited from earlier work
Text: as §1

S. aureus = settings: after repeated exposure to S. aureus; ref Hover et al., 2018; cited from earlier work
Text: as §1

[5] = tested on: methicillin-resistant Staphylococcus aureus (MRSA), MRSA USA300; settings: ref Hover et al., 2018, cited from earlier work
Text: In 2018, Brady et al. reported the isolation of malacidin A (1) as part of an extensive metagenomic mining study of bacterial DNA obtained from soil samples in search of novel bioactive natural products ([Owen et al., 2013]; [Hover et al., 2018]). […] Malacidin ... || FIGURE 1 Structure of malacidin A (1); non-canonical amino acids and the lipid tail are highlighted in purple; the undefined stereochemistry of β-carbon centers is indicated with an asterisk; the calcium-binding region residues are specified in red; the macrolactam bond is highlighted with blue shading. The stereochemistry and MIC values of the isolated malacidin A (1) ([Hover et al., 2018]) and synthesized diastereomers [this work 1a, the Li group 1b–1e ([Sun et al., 2020])] are shown above; X in 1 represents undefined stereochemistry. TEXT PRINTED IN THE PICTURE: Malacidin A (1): MIC (μg mL^ ...

[6] = tested on: Staphylococcus aureus (ATCC 29213); type: cell-based
Description: MIC assays were performed in accordance with the CLSI recommended protocol^17 with minor adjustments. Briefly, Staphylococcus aureus (ATCC 29213) was grown at 37 °C with shaking (200 rpm) in Mueller Hinton (MH) broth supplemented with either 1.5 mM (near the concentration commonly employed for daptomycin testing [1.25 mM]) or 15 mM CaCl2 (in accordance with the reported testing of malacidin by Hover et al.^1) from an autoclaved stock solution of CaCl2. The respective Ca^2+ adjusted media was used for all further compound and culture dilutions. A two-fold dilution series of the test compounds was prepared in triplicate in polypropylene 96-well plates. Cultures of bacteria grown for 8 h were diluted accordingly in fresh media before adding 50 µL of inoculum to each well of the MIC plate, to achieve a final volume of 100 µL with a uniform CFU/ml of ~5 x10^5 in each well. A growth control (untreated) and sterility control (non-inoculated) well were included for each test compound replicate. Plates were incubated at 37 °C with shaking for 18 h before determining the MIC by visual inspection. MIC values were determined as the lowest concentration at which no growth was observed consistently across all three biological replicates of the assay and within triplicates of each test compound.
Table S2. MIC values of diastereomer 1a at different CaCl2 concentrations.

[7] = Ca2+ binding capability by 1H NMR in the presence of CaCl2; settings: 1a 5.6 mM in D2O, CaCl2 at 1.5 mM and 15 mM, 500 MHz, 298 K
Description: Despite these differences, it was observed that the lipid sp^2 proton signals closely matched that of the natural product and no peaks arising from cis-trans isomerization were observed, indicating the tolerance of acid-sensitive lipid 25 to the optimized TFA side chain deprotection conditions and HPLC purification protocols.
[picture] Figure S16. Overlay of ^1H NMR spectra of synthetic 1a (5.6 mM) recorded at 500 MHz, 298 K in D2O spiked with Et3N (1.88 mM) and CaCl2 of varying concentrations: 0 mM CaCl2 (bottom), 1.5 mM CaCl2 (middle), 15 mM CaCl2 (top).

## CC1(C)S[C@@H]2[C@H](NC(=O)Cc3ccccc3)C(=O)N2[C@H]1C(=O)O [Penicillin G, penicillin G]
[1]; Staphylococcus aureus, ATCC6538, read-out: MIC
  MIC: 0.0312 µg/mL

## malacidin A
[2]
  CaCl2 concentration of maximum activity: 15 mM
[3]
  MIC: 0.8 to 2.0 µg/mL
[4]
  cytotoxicity: non-cytotoxic
[4]; preliminary mechanistic studies, ref Hover et al., 2018
  molecular target bound: binding to lipid II
S. aureus
  induction of resistance: did not induce resistance
[5]; MRSA
  MIC: 0.2 to 0.8 µg/mL
[5]; S.aureus strain: MRSA USA300, Figure 1
  MIC: 0.2 to 0.8 µg/mL

## CCCCCCCCCC(=O)N[C@@H](CC(=O)O)C(=O)N[C@H]1CNC(=O)[C@@H]2CCCN2C(=O)[C@H](C(C)C)NC(=O)[C@@H](CC(=O)O)NC(=O)CNC(=O)[C@H](CC(=O)O)NC(=O)[C@H](CC(=O)O)NC(=O)[C@H](CCCCN)NC(=O)[C@@H](C(C)C)NC1=O [compound 31] (Decanoyl-D[Dap][dV]KDDG[dD]VP; lactam 2-C)
[1]; media supplemented with 1.25–1.5 mM CaCl2 (Supplementary Table S3)
  activity toward S. aureus: no activity

## CC(C)[C@@H]1NC(=O)[C@@H](CC(=O)O)NC(=O)CNC(=O)[C@H](CC(=O)O)NC(=O)[C@H](CC(=O)O)NC(=O)[C@H](CCCCN)NC(=O)[C@@H](C(C)C)NC(=O)[C@@H](NC(=O)[C@H](CC(=O)O)NC(=O)c2ccc(-c3ccccc3)cc2)CNC(=O)[C@@H]2CCCN2C1=O [compound 40] ({Benzoyl(4-Ph)}-D[Dap][dV]KDDG[dD]VP; lactam 2-C)
[1]
  MIC: >128 >128 µg/mL

## CC(C)CC/C=C\C=C\C(=O)N[C@H](C(=O)N[C@@H]1C(=O)N[C@H](C(C)C)C(=O)N[C@@H](CCCCN)C(=O)N[C@@H]([C@H](O)C(=O)O)C(=O)N[C@@H](CC(=O)O)C(=O)NCC(=O)N[C@H]([C@@H](C)C(=O)O)C(=O)N[C@@H](C(C)C)C(=O)N2C[C@H](C)C[C@H]2C(=O)N[C@H]1C)[C@H](C)C(=O)O [1a]
[6]; 15 mM CaCl2 (Supplementary Table S2)
  activity toward S. aureus: no activity
[6]; S.aureus strain: ATCC 29213, Figure 1, this work
  MIC: > 64 µg/mL
[6]; media supplemented with 1.25–1.5 mM CaCl2 (Supplementary Table S2)
  activity toward S. aureus: no activity
[7]
  interaction with Ca^2+ ions (signal shifts or line broadening in 1H NMR): fails to interact with Ca^2+ ions
